Paper PMC8607231, “Generation of KS-133 as a Novel Bicyclic Peptide with a Potent and Selective VIPR2 Antagonist Activity that Counteracts Cognitive Decline in a Mouse Model of Psychiatric Disorders” (Frontiers in Pharmacology, 2021)
Where a SMILES comes first, the peptide text is derived from it. Bridges are numbered along the chain shown (N, C = ends).

What was measured:
[1] = tested on: VIPR2 activation-induced phosphorylation of CREB; test: Western blot of pCREB in prefrontal cortex of adult mice after i.n. injection; assay type: in vivo; details: mice at 8 weeks, KS-133 20 nmol/mouse i.n. with BAY 55-9837 20 µg/mouse, 45 min after injection
Procedure: For western blot analysis, ICR neonatal mice at P12 (7–10 g body weight) were subcutaneously (s.c.) injected with KS-133 (1 nmol/g) and Ro 25-1553 (0.4 nmol/g, Peptide Institute, Inc. Osaka, Japan), a selective VIPR2 agonist ([Gourlet et al., 1997]; [Harmar et al., 2012]), and adult C57BL/6J mice at 8 weeks of age (20–30 g body weight) were intranasally (i.n.) injected with KS-133 (20 nmol/mouse) and BAY 55-9837 (20 µg/mouse, Tocris Bioscience, Bristol, United Kingdom), another selective VIPR2 agonist ([Tsutsumi et al., 2002]; [Tian et al., 2019]). The dosages of these drugs were determined in a preliminary experiment using the change in phosphorylation of cAMP-response element-binding protein (CREB) as an index. Ro 25-1553 was dissolved in phosphate-buffered saline (PBS) and BAY 55-9837 was dissolved in distilled water. KS-133 was dissolved in saline with 1% dimethyl sulfoxide (DMSO; #13445-74, Nacalai Tesque, Inc., Kyoto, Japan) for s.c. injection or saline with 5% DMSO and 5 mg/ml poly-L-arginine (#P7762, Sigma-Aldrich, St. Louis, MO, United States) for i.n. injection. […]
FIGURE 4 Effects of subcutaneous (A) and intranasal (B) administration of KS-133 on VIPR2 activation-induced phosphorylation of CREB in the prefrontal cortex of mice. Phospho-CREB (pCREB), total CREB, and β-actin levels were analyzed by western blotting. […]

[2] = tested on: mouse model of psychiatric disorders on the basis of early postnatal activation of VIPR2; test: Novel object recognition test in mouse model of early postnatal activation of VIPR2; assay type: in vivo; details: KS-133 1 nmol/g s.c. simultaneously with Ro 25-1553 0.07 nmol/g, P1-14
Procedure: For behavioral experiments, all litters were randomly divided into Ro 25-1553- and PBS-treated groups. From P1 to P14, mice were injected s.c. once daily with Ro 25-1553 at a dose of 0.07 nmol/g ([Ago et al., 2015]). Mice treated with PBS from P1 to P14 were used as the control. KS-133 or the vehicle was simultaneously injected with Ro 25-1553 or PBS. Animals were weaned at P21 and divided by gender at P28. We used male mice exclusively to minimize any potential variability due to sex-specific effects on behavioral performance. All groups were derived from at least four different litters to preclude possible differences in individual maternal behaviors as a mitigating factor in any subsequent long-lasting changes induced in the offspring. […]
The novel object recognition test was carried out in accordance with previous reports ([Takuma et al., 2014]; [Hara et al., 2016]). […] The exploration time for each object in the retention session was measured with a stopwatch. […]
FIGURE 5 Effects of early postnatal treatment with Ro 25-1553 and KS-133 on recognition memory in the novel object recognition test. […] (B) Discrimination index (%) was calculated as the difference between novel and familiar object exploration times divided by the total time spent exploring the two objects. Results are expressed as the mean ± S.E.M. of 15–20 mice per group. **p < 0.01.

Q: Which “Effect on BAY 55-9837-induced increase in phosphorylated CREB” value [1] does the source give for `CC[C@H](C)[C@H](NC(=O)[C@H](CC(C)C)NC(=O)[C@@H]1CC(=O)NCCCC[C@@H]2NC(=O)[C@@H]3CCCN3C(=O)[C@H](CC(C)C)NC(=O)[C@H](Cc3ccc(O)cc3)NC(=O)[C@@H]3CCCN3C(=O)[C@@H]3CCCN3C(=O)[C@@H](NC(C)=O)CSSC[C@H](NC(=O)[C@H](CC(C)C)NC(=O)[C@H](Cc3ccc(O)cc3)NC2=O)C(=O)N1)C(N)=O` [KS-133, Ac-c[Cys-Pro-Pro-Tyr-Leu-Pro-c(Lys-Tyr-Leu-Cys]-Asp)-Leu-Ile-NH2] (Ac-CPPYLPKYLCDLI-NH2; disulfide 1-10; lactam 7-11) here?
A: blocked

Q: What about the “Effect on Ro 25-1553-induced recognition memory deficit, novel object recognition test” value [2] of the same molecule?
A: attenuated the decreases in the difference of time spent exploring each object and cognitive dysfunction
